Data as given in US9346815B2, “5-chloro-2-difluoromethoxyphenyl pyrazolopyrimidine compounds, compositions and methods of use thereof” (Genentech, Inc., priority 2014, dated 2016).
pKi: −log10 of the molar value. Counter-ions that a name gives are not always drawn.

Legend:
[1] = test system: JAK1-dependent STAT6 phosphorylation downstream of IL-13 stimulation in BEAS-2B human bronchial epithelial cells; experiment: JAK1 pathway assay in BEAS-2B cells (IL-13-pSTAT6, MSD); format: cell-based; details: read-out: IL13-pSTAT6 EC50 (uM)_BEAS-2B
Procedure, shortened: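 Cells were preincubated with compounds (0.2% DMSO) for 30 min (TF-1, GM-CSF-starved overnight, serum-free OptiMEM, 300,000 cells/well) or 1 h (BEAS-2B, complete medium, 100,000 cells/well) at 37 °C.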

[2] = target: isolated recombinant JAK2 kinase domain (Homo sapiens (Human), UniProt O60674); experiment: JAK2 enzyme assay (Caliper LabChip, peptide phosphorylation); format: biochemical; details: 25 μM ATP
[3] = target: isolated recombinant JAK1 kinase domain (Homo sapiens (Human), UniProt P23458); experiment: JAK1 enzyme assay (Caliper LabChip, peptide phosphorylation); format: biochemical; details: isolated recombinant JAK1 kinase domain, 25 μM ATP
Sequence of isolated recombinant JAK1 kinase domain (P23458 875-1153): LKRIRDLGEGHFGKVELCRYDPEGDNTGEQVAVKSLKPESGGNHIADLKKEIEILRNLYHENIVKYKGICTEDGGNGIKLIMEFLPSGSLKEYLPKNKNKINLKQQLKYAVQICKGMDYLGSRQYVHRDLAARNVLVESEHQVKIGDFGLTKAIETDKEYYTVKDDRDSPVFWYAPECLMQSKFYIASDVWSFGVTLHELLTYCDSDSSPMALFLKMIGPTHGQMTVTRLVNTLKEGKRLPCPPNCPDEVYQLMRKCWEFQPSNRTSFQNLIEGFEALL

Sequence of isolated recombinant JAK2 kinase domain (O60674 849-1124): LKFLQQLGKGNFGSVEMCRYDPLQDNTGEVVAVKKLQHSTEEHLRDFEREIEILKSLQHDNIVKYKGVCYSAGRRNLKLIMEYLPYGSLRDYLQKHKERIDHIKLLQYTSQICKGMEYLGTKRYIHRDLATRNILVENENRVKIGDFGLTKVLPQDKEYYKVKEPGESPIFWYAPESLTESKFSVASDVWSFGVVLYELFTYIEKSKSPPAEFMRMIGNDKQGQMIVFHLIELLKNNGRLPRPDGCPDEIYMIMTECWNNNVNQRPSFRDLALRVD

| SMILES | EC50 [1] | pKi [2] | pKi [3] |
| --- | --- | --- | --- |
| CN(C)CCOC(=O)C1(C)CCN(C(=O)Cn2cc(NC(=O)c3cnn4cccnc34)c(-c3cc(Cl)ccc3OC(F)F)n2)CC1 [Example 340, 2-(dimethylamino)ethyl 1-(2-[3-[5-chloro-2-(difluoromethoxy)phenyl]-4-[pyrazolo[1,5-a]pyrimidine-3-amido]-1H-pyrazol-1-yl]acetyl)-4-methylpiperidine-4-carboxylate] | 0.009 µM | 8.75 | 9.36 |
| O=C(Nc1cn(C/C=C/CN2CCOCC2)nc1-c1cc(Cl)ccc1OC(F)F)c1cnn2cccnc12 [Example 394, N-[3-[5-chloro-2-(difluoromethoxy)phenyl]-1-[(2E)-4-(morpholin-4-yl)but-2-en-1-yl]-1H-pyrazol-4-yl]pyrazolo[1,5-a]pyrimidine-3-carboxamide] | 0.0311 µM | 9.21 | 9.06 |
| O=C1CCC(Cn2cc(NC(=O)c3cnn4cccnc34)c(-c3cc(Cl)ccc3OC(F)F)n2)O1 (stereo not drawn) [Example 323] | 0.0209 µM | 9.48 | 9.17 |
| O=C(Nc1cn(CC(=O)N2CCN(C3CCOCC3)CC2)nc1-c1cc(Cl)ccc1OC(F)F)c1cnn2cccnc12 [Example 429, N-(3-(5-chloro-2-(difluoromethoxy)phenyl)-1-(2-oxo-2-(4-(tetrahydro-2H-pyran-4-yl)piperazin-1-yl)ethyl)-1H-pyrazol-4-yl)pyrazolo[1,5-a]pyrimidine-3-carboxamide] | 0.0074 µM | 9.00 | 9.32 |
| COC(=O)C1(C)CCN(CCN2CCN(C(=O)Cn3cc(NC(=O)c4cnn5cccnc45)c(-c4cc(Cl)ccc4OC(F)F)n3)CC2)CC1 [Example 335, methyl 1-[2-[4-(2-[3-[5-chloro-2-(difluoromethoxy)phenyl]-4-[pyrazolo[1,5-a]pyrimidine-3-amido]-1H-pyrazol-1-yl]acetyl)piperazin-1-yl]ethyl]-4-methylpiperidine-4-carboxylate formate] | 0.0121 µM | 8.65 | 9.08 |
| O=C(O)CN1CCN(C(=O)Cn2cc(NC(=O)c3cnn4cccnc34)c(-c3cc(Cl)ccc3OC(F)F)n2)CC1 [Example 310, 2-[4-(2-[3-[5-chloro-2-(difluoromethoxy)phenyl]-4-[pyrazolo[1,5-a]pyrimidine-3-amido]-1H-pyrazol-1-yl]acetyl)piperazin-1-yl]acetic acid] | 8.83 µM | 9.23 | 9.28 |
| CC1(CN2CCN(C(=O)Cn3cc(NC(=O)c4cnn5cccnc45)c(-c4cc(Cl)ccc4OC(F)F)n3)CC2)COC1 [Example 318, N-[3-[5-chloro-2-(difluoromethoxy)phenyl]-1-(2-[4-[(3-methyloxetan-3-yl)methyl]piperazin-1-yl]-2-oxoethyl)-1H-pyrazol-4-yl]pyrazolo[1,5-a]pyrimidine-3-carboxamide] | 0.0283 µM | 8.95 | 9.25 |
| CN(C)C(=O)CN1CCC(CN2CCN(C(=O)Cn3cc(NC(=O)c4cnn5cccnc45)c(-c4cc(Cl)ccc4OC(F)F)n3)CC2)CC1 [Example 428, N-(3-(5-chloro-2-(difluoromethoxy)phenyl)-1-(2-(4-((1-(2-(dimethylamino)-2-oxoethyl)piperidin-4-yl)methyl)piperazin-1-yl)-2-oxoethyl)-1H-pyrazol-4-yl)pyrazolo[1,5-a]pyrimidine-3-carboxamide] | 0.0453 µM | 8.60 | 9.10 |
| O=C(Nc1cn(CCNCc2ccncc2)nc1-c1cc(Cl)ccc1OC(F)F)c1cnn2cccnc12 [Example 315, N-[3-[5-chloro-2-(difluoromethoxy)phenyl]-1-[2-[(pyridin-4-ylmethyl)amino]ethyl]-1H-pyrazol-4-yl]pyrazolo[1,5-a]pyrimidine-3-carboxamide] | 0.0823 µM | 9.40 | 9.14 |
